From PubChem BioAssay (NCI)
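How tested: cells in 96-well plates exposed to compound for 48 hours at five concentrations. GI50 marks 50% less growth. TGI is the concentration that stops growth completely.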

Legend:
Assay in all cases: growth of human tumour cells (NCI), 48 h; in the data active = GI50 below about 0.43 µM; inactive = the rest
NCI/ADR-RES ovarian = system: NCI/ADR-RES ovarian
U251 CNS = system: U251 CNS
TK-10 renal = system: TK-10 renal
NCI-H460 lung = system: NCI-H460 lung
SN12C renal = system: SN12C renal
SK-OV-3 ovarian = system: SK-OV-3 ovarian
RPMI-8226 leukemia = system: RPMI-8226 leukemia
UACC-62 melanoma = system: UACC-62 melanoma
HL-60(TB) leukemia = system: HL-60(TB) leukemia
ACHN renal = system: ACHN renal
MALME-3M melanoma = system: MALME-3M melanoma
LOX IMVI melanoma = system: LOX IMVI melanoma
IGROV1 ovarian = system: IGROV1 ovarian
PC-3 prostate = system: PC-3 prostate
KM12 colon = system: KM12 colon
A549 NSCLC = system: A549 NSCLC
SK-MEL-28 melanoma = system: SK-MEL-28 melanoma
SK-MEL-5 melanoma = system: SK-MEL-5 melanoma
UO-31 renal = system: UO-31 renal
MDA-MB-231 breast = system: MDA-MB-231 breast
A498 renal = system: A498 renal
CAKI-1 renal = system: CAKI-1 renal
MOLT-4 leukemia = system: MOLT-4 leukemia
DU-145 prostate = system: DU-145 prostate
HOP-92 NSCLC = system: HOP-92 NSCLC
NCI-H226 lung = system: NCI-H226 lung
NCI-H23 lung = system: NCI-H23 lung
M14 melanoma = system: M14 melanoma
786-0 renal = system: 786-0 renal
COLO 205 colon = system: COLO 205 colon
HCC-2998 colon = system: HCC-2998 colon
RXF 393 renal = system: RXF 393 renal
SF-268 CNS = system: SF-268 CNS
OVCAR-4 ovarian = system: OVCAR-4 ovarian
HS 578T breast = system: HS 578T breast
SF-295 CNS = system: SF-295 CNS
MCF7 breast = system: MCF7 breast
HOP-62 NSCLC = system: HOP-62 NSCLC
T-47D breast = system: T-47D breast
OVCAR-8 ovarian = system: OVCAR-8 ovarian
OVCAR-3 ovarian = system: OVCAR-3 ovarian
HCT-116 colon = system: HCT-116 colon
SNB-75 CNS = system: SNB-75 CNS
HT29 colon = system: HT29 colon
EKVX NSCLC = system: EKVX NSCLC
SF-539 CNS = system: SF-539 CNS
SNB-19 CNS = system: SNB-19 CNS
NCI-H522 lung = system: NCI-H522 lung
SK-MEL-2 melanoma = system: SK-MEL-2 melanoma
OVCAR-5 ovarian = system: OVCAR-5 ovarian
K-562 leukemia = system: K-562 leukemia
SW-620 colon = system: SW-620 colon
SR leukemia = system: SR leukemia
CCRF-CEM leukemia = system: CCRF-CEM leukemia
HCT-15 colon = system: HCT-15 colon
MDA-MB-435 = system: MDA-MB-435
BT-549 breast = system: BT-549 breast

CCc1ccc(CCC(=O)Nc2ncc(Cc3cc(Cl)ccc3Cl)s2)o1
2110 nM: TGI (HL-60(TB) leukemia)
16900 nM: TGI (HOP-62 NSCLC)
2400 nM: TGI (SNB-75 CNS)
inactive: GI50 (NCI/ADR-RES ovarian) 1600 nM | GI50 (U251 CNS) 1610 nM | GI50 (TK-10 renal) 3470 nM | GI50 (NCI-H460 lung) 1880 nM | GI50 (SN12C renal) 1930 nM | GI50 (SK-OV-3 ovarian) 2040 nM | GI50 (RPMI-8226 leukemia) 1210 nM | GI50 (UACC-62 melanoma) 1490 nM | GI50 (HL-60(TB) leukemia) 887 nM | GI50 (ACHN renal) 1690 nM | GI50 (MALME-3M melanoma) 1380 nM | GI50 (LOX IMVI melanoma) 2040 nM | GI50 (IGROV1 ovarian) 1690 nM | GI50 (PC-3 prostate) 1490 nM | GI50 (KM12 colon) 1120 nM | GI50 (A549 NSCLC) 2140 nM | GI50 (SK-MEL-28 melanoma) 2750 nM | GI50 (SK-MEL-5 melanoma) 1210 nM | GI50 (UO-31 renal) 1860 nM | GI50 (MDA-MB-231 breast) 2160 nM | GI50 (A498 renal) 1190 nM | GI50 (CAKI-1 renal) 774 nM | GI50 (MOLT-4 leukemia) 1300 nM | GI50 (DU-145 prostate) 1740 nM | GI50 (HOP-92 NSCLC) 2080 nM | GI50 (NCI-H226 lung) 3610 nM | GI50 (NCI-H23 lung) 2490 nM | GI50 (M14 melanoma) 721 nM | GI50 (786-0 renal) 2700 nM | GI50 (COLO 205 colon) 1260 nM | GI50 (HCC-2998 colon) 2990 nM | GI50 (RXF 393 renal) 1190 nM | GI50 (SF-268 CNS) 3600 nM | GI50 (OVCAR-4 ovarian) 1780 nM | GI50 (HS 578T breast) 1290 nM | GI50 (SF-295 CNS) 1250 nM | GI50 (HOP-62 NSCLC) 2010 nM | GI50 (T-47D breast) 1860 nM | GI50 (OVCAR-8 ovarian) 2250 nM | GI50 (OVCAR-3 ovarian) 1330 nM | GI50 (HCT-116 colon) 988 nM | GI50 (HT29 colon) 1170 nM | GI50 (EKVX NSCLC) 2320 nM | GI50 (SF-539 CNS) 1260 nM | GI50 (SNB-19 CNS) 1870 nM | GI50 (NCI-H522 lung) 1620 nM | GI50 (SK-MEL-2 melanoma) 2660 nM | GI50 (OVCAR-5 ovarian) 2210 nM | GI50 (SW-620 colon) 935 nM | GI50 (CCRF-CEM leukemia) 843 nM | GI50 (HCT-15 colon) 508 nM | GI50 (BT-549 breast) > 50000 nM
6870 nM: TGI (RXF 393 renal)
11600 nM: TGI (ACHN renal)
4760 nM: TGI (OVCAR-3 ovarian)
11000 nM: TGI (COLO 205 colon)
22500 nM: TGI (UO-31 renal)
6920 nM: TGI (RPMI-8226 leukemia)
11700 nM: TGI (U251 CNS)
5960 nM: TGI (HS 578T breast)
9100 nM: TGI (HCT-116 colon)
7920 nM: TGI (SR leukemia)
7170 nM: TGI (SF-295 CNS)
4100 nM: TGI (SF-539 CNS)
486 nM: TGI (MDA-MB-435)
15600 nM: TGI (MDA-MB-231 breast)
3460 nM: TGI (A498 renal)
12600 nM: TGI (OVCAR-4 ovarian)
12100 nM: TGI (CAKI-1 renal)
36900 nM: TGI (SN12C renal)
active: GI50 (MCF7 breast) 399 nM | GI50 (SNB-75 CNS) 412 nM | GI50 (K-562 leukemia) 242 nM | GI50 (SR leukemia) 220 nM | GI50 (MDA-MB-435) 150 nM
> 50000 nM: TGI (NCI/ADR-RES ovarian) | TGI (TK-10 renal) | TGI (NCI-H460 lung) | TGI (SK-OV-3 ovarian) | TGI (UACC-62 melanoma) | TGI (MALME-3M melanoma) | TGI (LOX IMVI melanoma) | TGI (IGROV1 ovarian) | TGI (PC-3 prostate) | TGI (KM12 colon) | TGI (A549 NSCLC) | TGI (SK-MEL-28 melanoma) | TGI (SK-MEL-5 melanoma) | TGI (MOLT-4 leukemia) | TGI (DU-145 prostate) | TGI (HOP-92 NSCLC) | TGI (NCI-H226 lung) | TGI (NCI-H23 lung) | TGI (M14 melanoma) | TGI (786-0 renal) | TGI (HCC-2998 colon) | TGI (SF-268 CNS) | TGI (MCF7 breast) | TGI (T-47D breast) | TGI (OVCAR-8 ovarian) | TGI (HT29 colon) | TGI (EKVX NSCLC) | TGI (NCI-H522 lung) | TGI (SK-MEL-2 melanoma) | TGI (OVCAR-5 ovarian) | TGI (K-562 leukemia) | TGI (SW-620 colon) | TGI (CCRF-CEM leukemia) | TGI (HCT-15 colon) | TGI (BT-549 breast)
12400 nM: TGI (SNB-19 CNS)
